Experimental data from ChEMBL document CHEMBL1150558, “Enantiomeric Composition of Trans-Dihydrodiols Formed from Meso-K-Region Arene Oxides by Microsomal Epoxide Hydrolase” (Bioorg Med Chem Lett, 1992).

Columns and labels:
[1] = target: T1, Epoxide hydrolase 1 (Rattus norvegicus) (UniProt P07687); test: Percent Enantiomeric composition (R,R) of trans-Dihydrodiol formed by Microsomal Epoxide Hydrolase from rat liver at 50 mM Tris-HCl buffer, pH 8.4 at 37 degrees C
T1 sequence (whole entry): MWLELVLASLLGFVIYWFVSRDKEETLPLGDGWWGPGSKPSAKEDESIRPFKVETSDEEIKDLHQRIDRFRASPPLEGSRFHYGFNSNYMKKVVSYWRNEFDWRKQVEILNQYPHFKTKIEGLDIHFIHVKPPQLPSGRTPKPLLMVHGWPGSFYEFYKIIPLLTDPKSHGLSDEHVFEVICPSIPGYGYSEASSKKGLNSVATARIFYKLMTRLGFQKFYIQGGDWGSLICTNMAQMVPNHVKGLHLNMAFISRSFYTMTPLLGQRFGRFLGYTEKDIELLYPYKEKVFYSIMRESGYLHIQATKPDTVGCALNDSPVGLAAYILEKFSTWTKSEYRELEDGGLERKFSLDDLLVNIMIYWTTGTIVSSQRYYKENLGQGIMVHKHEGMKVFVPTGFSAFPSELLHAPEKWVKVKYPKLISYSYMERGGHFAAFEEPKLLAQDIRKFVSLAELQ

[2] = target: T1, Epoxide hydrolase 1 (Rattus norvegicus); test: Percent Enantiomeric composition (S,S) of trans-Dihydrodiol formed by Microsomal Epoxide Hydrolase from rat liver at 50 mM Tris-HCl buffer, pH 8.4 at 37 degrees C
[3] = target: Epoxide hydrolase 1 (Oryctolagus cuniculus) (UniProt P04068); test: Percent Enantiomeric composition (R,R) of trans-Dihydrodiol formed by Microsomal Epoxide Hydrolase from rabbit liver microsomes
Sequence of Epoxide hydrolase 1 (Oryctolagus cuniculus) (P04068 whole entry, looked up): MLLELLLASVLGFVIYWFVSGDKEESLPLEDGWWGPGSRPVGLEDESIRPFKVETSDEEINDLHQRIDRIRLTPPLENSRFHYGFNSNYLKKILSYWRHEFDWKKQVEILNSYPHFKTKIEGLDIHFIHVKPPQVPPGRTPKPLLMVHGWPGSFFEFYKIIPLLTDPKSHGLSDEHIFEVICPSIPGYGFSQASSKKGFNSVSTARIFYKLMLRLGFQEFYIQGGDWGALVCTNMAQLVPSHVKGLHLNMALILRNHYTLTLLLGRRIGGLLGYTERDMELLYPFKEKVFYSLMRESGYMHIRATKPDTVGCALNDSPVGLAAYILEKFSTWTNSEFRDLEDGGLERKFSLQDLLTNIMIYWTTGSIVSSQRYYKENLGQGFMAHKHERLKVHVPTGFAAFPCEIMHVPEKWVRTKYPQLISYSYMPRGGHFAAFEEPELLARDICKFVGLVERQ

[4] = target: Epoxide hydrolase 1 (Oryctolagus cuniculus) (UniProt P04068); test: Percent Enantiomeric composition (S,S) of trans-Dihydrodiol formed by Microsomal Epoxide Hydrolase from rabbit liver microsomes

| Structure (SMILES) | Enantiomeric composition [1] [%] | Enantiomeric composition [2] [%] | Enantiomeric composition [3] [%] | Enantiomeric composition [4] [%] |
| --- | --- | --- | --- | --- |
| c1ccc2c(c1)c1cccc3c1c1c(cccc21)C1OC31 (stereo not drawn) | 83 | 17 | – | – |
| c1ccc2c(c1)-c1ccccc1C1OC21 (stereo not drawn) | 42 | 58 | – | – |
| C1=CC2OC2C=C1 (stereo not drawn) | – | – | 82 | 18 |
| c1cc2c3c(c1)ccc1cccc(c13)C1OC21 (stereo not drawn) | 86 | 14 | – | – |
